Measurements from ChEMBL document CHEMBL1641389, “Penasins A-E, long-chain cytotoxic sphingoid bases, from a marine sponge Penares sp” (J Nat Prod, 2010).
≈ marks a conversion by molar mass, not a printed value.

Columns and labels:
HeLa = experiment: Cytotoxicity against human HeLa cells after 96 hrs by MTT assay; format: functional, cell-based
P388 = experiment: Cytotoxicity against mouse P388 cells after 96 hrs by MTT assay; format: functional, cell-based; conditions: P388, 96 h

SMILES | IC50 (HeLa) | IC50 (P388)
CCCCCCCCCCCCCCCC/C=C(\Cl)CC/C=C\CCCC[C@@H]1OC[C@H](N)[C@@H]1O [PENASIN B] | 10 µg/mL (≈ 20.1 µM) | 50 µg/mL (≈ 100 µM)
CCCCCCCCCCCCCCCC/C=C\CC/C=C\CCCC[C@@H]1OC[C@H](N)[C@@H]1O [PENASIN] | 10 µg/mL (≈ 21.6 µM) | 50 µg/mL (≈ 108 µM)
